Laboratory results: US20040235863A1, “Morpholine-bridged pyrazolopyridine derivatives” (priority 2001, published 2004)

System: rabbit aorta rings contracted with phenylephrine
Experiment: Vasorelaxant effect in vitro
Set-up: species or system Rabbits
Details: Oryctolagus cuniculus; isolated rabbit aorta rings, phenylephrine-induced contraction, concentration reducing height of contraction by 50%
Protocol: Vasorelaxant Effect in Vitro
Rabbits are stunned by a blow to the back of the neck and are exsanguinated. The aorta is removed, freed of adherent tissue, divided into rings 1.5 mm wide and put singly under tension in 5 ml organ baths containing carbogen-gassed Krebs-Henseleit solution at 37° C. with the following composition (mM): NaCl: 119; KCl: 4.8; CaCl2×2H2O: 1; MgSO4×7H2O: 1.4; KH2PO4: 1.2; NaHCO3: 25; glucose: 10. The force of contraction is detected with Statham UC2 cells, amplified and digitized via A/D converters (DAS-1802 HC, Keithley Instruments Munich) and recorded in parallel on chart recorders. A contraction is generated by adding phenylephrine to the bath cumulatively in increasing concentration. After several control cycles, the substance to be investigated is investigated in each further run in increasing dosage in each case, and the height of the contraction is compared with the height of the contraction reached in the last preceding run. The concentration necessary to reduce the height of the control value by 50% (IC50) is calculated from this. The standard application volume is 5 μl, and the DMSO content in the bath solution corresponds to 0.1%.

Structure (SMILES): Nc1nc(-c2nn(Cc3ccccc3F)c3ncccc23)ncc1N1C2CCCC1COC2 [Example 2, 2-[1-(2-Fluorobenzyl)-1H-pyrazolo[3,4-b]pyridin-3-yl]-5-(3-oxa-9-azabicyclo[3.3.1]non-9-yl)-4-pyrimidinylamine]
- IC50: 0.3 µM
